Among the test systems are BT-549 breast; HOP-62 NSCLC; MALME-3M melanoma; MCF7 breast; MDA-N; SF-539 CNS; SK-MEL-5 melanoma; SNB-75 CNS; SW-620 colon; TK-10 renal; UACC-257 melanoma.
Assay in all cases: growth of human tumour cells (NCI), 48 h

Molecules are shown by their SMILES.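 The compound was tested at five concentrations on cells cultured in 96-well plates, with a 48-hour exposure period. At the TGI there is no net growth.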 Where only a bound is given, the exact number is not on record here.

Turning to `OCC1OC(n2cnc3c(SCc4ccccc4)ncnc32)C(O)C1O` (configuration not stated), the TGI in the assay with BT-549 breast, in the assay with HOP-62 NSCLC, with MALME-3M melanoma, in the assay on MCF7 breast, with MDA-N and with SF-539 CNS was over 100 µM each time. The TGI with SK-MEL-5 melanoma, in the assay on SNB-75 CNS, with SW-620 colon, in the assay on TK-10 renal and in the assay with UACC-257 melanoma was over 100 µM in each case.
Regarding `COCC12CCC(OC)C34C5CC6(O)C(OC)C=C(C5C6OC(=O)c5ccccc5)C(C(OC)C13)C4N(C)C2` (configuration not stated), the TGI in the assay with BT-549 breast, in the assay with HOP-62 NSCLC, in the assay on MALME-3M melanoma, in the assay with MCF7 breast, with MDA-N and in the assay on SF-539 CNS was over 100 µM throughout. Moreover, the TGI with SK-MEL-5 melanoma, in the assay with SNB-75 CNS, in the assay with SW-620 colon, with TK-10 renal and in the assay with UACC-257 melanoma was over 100 µM in each case.
On to `Cc1ccc(SCC(CF)OC(C)n2cnc3c(Cl)nc(N)nc32)cc1` (configuration not stated), for which the TGI in the assay on BT-549 breast, in the assay on HOP-62 NSCLC, in the assay on MALME-3M melanoma, in the assay on MCF7 breast, in the assay with MDA-N and in the assay on SF-539 CNS was over 100 µM in each case. Also, the TGI in the assay with SK-MEL-5 melanoma was 53.7 µM; in the assay on SNB-75 CNS, over 100 µM; with SW-620 colon, over 100 µM; with TK-10 renal it was over 100 µM; in the assay with UACC-257 melanoma, over 100 µM.
Regarding `CCCn1c(=O)c2nn3c(=O)n(CCC)c(=O)c3nn2c1=O`, the TGI in the assay with BT-549 breast, in the assay on HOP-62 NSCLC, in the assay with MALME-3M melanoma, in the assay on MCF7 breast, in the assay with MDA-N and in the assay on SF-539 CNS was over 100 µM throughout. Besides, the TGI in the assay on SK-MEL-5 melanoma, in the assay on SNB-75 CNS, in the assay on SW-620 colon, in the assay on TK-10 renal and in the assay with UACC-257 melanoma was over 100 µM each time.
For the compound `CCOC(=O)c1cn(CC)c2ccc3ccsc3c2c1=O`, the TGI in the assay on BT-549 breast, in the assay with HOP-62 NSCLC, with MALME-3M melanoma, with MCF7 breast, in the assay on MDA-N and with SF-539 CNS was over 100 µM throughout. In addition, the TGI in the assay on SK-MEL-5 melanoma, with SNB-75 CNS, with SW-620 colon, with TK-10 renal and in the assay with UACC-257 melanoma was over 100 µM each time.
Take `Nc1nc(Br)nc2ncn(C3CC(O)C(CO)O3)c12` (configuration not stated): the TGI with BT-549 breast, with HOP-62 NSCLC, in the assay with MALME-3M melanoma, in the assay on MCF7 breast, with MDA-N and in the assay with SF-539 CNS was over 100 µM throughout. The TGI with SK-MEL-5 melanoma, in the assay on SNB-75 CNS, in the assay on SW-620 colon, with TK-10 renal and in the assay on UACC-257 melanoma was over 100 µM in each case.
In the case of `O=C(O)c1cccc(OCCOc2cccc(C(=O)O)c2[N+](=O)[O-])c1[N+](=O)[O-]`, the TGI with BT-549 breast, with HOP-62 NSCLC, with MALME-3M melanoma, in the assay with MCF7 breast, in the assay on MDA-N and in the assay on SF-539 CNS was over 100 µM throughout. Besides, the TGI in the assay on SK-MEL-5 melanoma, in the assay with SNB-75 CNS, in the assay on SW-620 colon, in the assay with TK-10 renal and in the assay with UACC-257 melanoma was over 100 µM each time.
For `COc1cc2c(cc1O)Cc1c-2[n+](C)cc2cc(OC)c(OC)cc12`, the TGI is over 57.9 µM in the assay with BT-549 breast; over 100 µM with HOP-62 NSCLC; over 100 µM in the assay with MALME-3M melanoma; over 100 µM with MCF7 breast; over 100 µM with MDA-N; 7.46 µM with SF-539 CNS. For the same compound, the TGI in the assay on SK-MEL-5 melanoma was 23.3 µM; in the assay with SNB-75 CNS it was over 100 µM; with SW-620 colon, over 100 µM; with TK-10 renal, over 100 µM; in the assay with UACC-257 melanoma, over 100 µM.
For the compound `O=C1CCCCC1C(O)(C(F)(F)F)C(F)(F)Cl` (configuration not stated), the TGI with BT-549 breast, with HOP-62 NSCLC, with MALME-3M melanoma, in the assay on MCF7 breast, with MDA-N and in the assay on SF-539 CNS was over 10 µM in each case. Further, the TGI in the assay on SK-MEL-5 melanoma, in the assay on SNB-75 CNS, in the assay with SW-620 colon, with TK-10 renal and in the assay with UACC-257 melanoma was over 10 µM in each case.
For `Cc1cccc2c1c(=O)c1c(O)cc3c(c1n2C)C=CC(C)(C)O3`, the TGI with BT-549 breast, with HOP-62 NSCLC, in the assay on MALME-3M melanoma, with MCF7 breast, in the assay on MDA-N and with SF-539 CNS was over 100 µM throughout. Besides, the TGI with SK-MEL-5 melanoma, in the assay on SNB-75 CNS, with SW-620 colon, with TK-10 renal and in the assay with UACC-257 melanoma was over 100 µM in each case.
Turning to `O=C(/C=C/c1ccc(O)c(O)c1)NC(COC(=O)/C=C/c1ccc(O)c(O)c1)C(=O)O` (configuration not stated), the TGI in the assay on BT-549 breast, with HOP-62 NSCLC, in the assay on MALME-3M melanoma, with MCF7 breast, in the assay on MDA-N and with SF-539 CNS was over 100 µM throughout. The TGI in the assay with SK-MEL-5 melanoma, with SNB-75 CNS, in the assay on SW-620 colon, in the assay with TK-10 renal and in the assay on UACC-257 melanoma was over 100 µM in each case.
Regarding `COc1ccccc1N1C(=O)CSC1c1cc(OC)c(OC)c(OC)c1` (configuration not stated), the TGI was 98.3 µM in the assay on BT-549 breast; over 100 µM in the assay with HOP-62 NSCLC; over 100 µM with MALME-3M melanoma; over 100 µM in the assay on MCF7 breast; 44.7 µM in the assay on MDA-N; over 100 µM in the assay with SF-539 CNS. The TGI in the assay on SK-MEL-5 melanoma, in the assay with SNB-75 CNS, with SW-620 colon, in the assay on TK-10 renal and in the assay on UACC-257 melanoma was over 100 µM in each case.
